pKi: −log10 of the molar value.
Molecular target: human PSMA (Homo sapiens (Human), UniProt Q04609)
Assay: Enzymatic assay for in vitro evaluation of PSMA inhibitors (fluorescent assay of PSMA activity, NAAG substrate, OPA detection of glutamate)
Format: biochemical

human PSMA, sequence (Q04609 whole entry): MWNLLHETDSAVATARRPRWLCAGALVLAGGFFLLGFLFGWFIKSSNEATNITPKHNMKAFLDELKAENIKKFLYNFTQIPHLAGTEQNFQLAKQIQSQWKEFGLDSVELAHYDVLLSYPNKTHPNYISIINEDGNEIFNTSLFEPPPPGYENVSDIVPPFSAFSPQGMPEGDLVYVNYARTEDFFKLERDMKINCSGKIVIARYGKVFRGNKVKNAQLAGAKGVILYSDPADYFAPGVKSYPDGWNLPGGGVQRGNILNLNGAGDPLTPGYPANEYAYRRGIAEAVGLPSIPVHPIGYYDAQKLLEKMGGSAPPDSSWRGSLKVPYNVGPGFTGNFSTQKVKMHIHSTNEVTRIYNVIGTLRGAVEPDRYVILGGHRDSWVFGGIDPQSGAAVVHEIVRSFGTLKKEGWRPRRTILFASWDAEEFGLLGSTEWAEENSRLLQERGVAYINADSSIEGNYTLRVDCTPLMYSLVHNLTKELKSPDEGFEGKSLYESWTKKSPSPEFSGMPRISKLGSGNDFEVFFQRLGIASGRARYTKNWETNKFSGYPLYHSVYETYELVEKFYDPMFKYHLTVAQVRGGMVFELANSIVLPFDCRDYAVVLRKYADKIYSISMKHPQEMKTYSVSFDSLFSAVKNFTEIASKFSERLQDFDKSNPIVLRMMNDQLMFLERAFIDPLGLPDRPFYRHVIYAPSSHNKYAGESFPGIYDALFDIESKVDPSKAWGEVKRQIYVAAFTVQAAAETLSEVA

Row | SMILES | PSMA Blkg % (10 μM) (compound at 10 μM) [%] | also measured
1 | O=C(O)CC[C@H](NC(=O)N[C@@H](CCCCNC(=O)c1cc(C(=O)O)cc(-n2cc(CCCF)nn2)c1)C(=O)O)C(=O)O [P259, (S)-2-(3-((S)-1-Carboxy-5-(3-carboxy-5-(4-(3-fluoropropyl)-1H-1,2,3-triazol-1-yl)benzamido)pentyl)ureido)pentanedioic Acid] |  | PSMA Blkg % (1.0 μM): 98%
2 | O=C(O)CCC(NC(=O)N[C@@H](CCCCNc1nc(NCCN(CCNc2ccc([N+](=O)[O-])c(NCCCCC(NC(=O)N[C@@H](CCC(=O)O)C(=O)O)C(=O)O)n2)CCNc2ccc([N+](=O)[O-])c(NCCCCC(NC(=O)N[C@@H](CCC(=O)O)C(=O)O)C(=O)O)n2)ccc1[N+](=O)[O-])C(=O)O)C(=O)O (stereo in doubt) [P270, (2S,2′S,2″S)-2,2′,2″-(((((1S,1′S,1″S)-((6,6′,6″-((Nitrilotris(ethane-2,1-diyl))tris(azanediyl))tris(3-nitropyridine-6,2-diyl))tris(azanediyl))tris(1-carboxypentane-5,1-diyl))tris(azanediyl))tris(carbonyl))tris(azanediyl))tripentanedioic Acid] |  | pKi: 9.70; PSMA Blkg % (1.0 μM): 71%
3 | O=C(O)CC[C@H](NC(=O)N[C@@H](CCCCNC(=O)c1cc(C(=O)Nc2ccc(C[C@H](NC(=O)N[C@@H](CCC(=O)O)C(=O)O)C(=O)O)cc2)cc(-n2cc(CCCF)nn2)c1)C(=O)O)C(=O)O [P267, (S)-2-(3-((S)-1-Carboxy-2-(4-(3-(((S)-5-carboxy-5-(3-((S)-1,3-dicarboxypropyl)ureido)pentyl)carbamoyl)-5-(4-(3-fluoropropyl)-1H-1,2,3-triazol-1-yl)benzamido)phenyl)ethyl)ureido)pentanedioic Acid] |  | PSMA Blkg % (1.0 μM): 82%
4 | O=C(O)CC[C@H](NC(=O)C[C@H](NC(=O)Cn1cc(CCCF)nn1)C(=O)O)C(=O)O [P020, (S)-2-((S)-3-Carboxy-3-(2-(4-(3-fluoropropyl)-1H-1,2,3-triazol-1-yl)acetamido)-propanamido)pentanedioic Acid] | 0 | 
5 | CC(C)(C)OC(=O)NCCCC[C@H](NC(=O)N[C@@H](CCC(=O)O)C(=O)O)C(=O)O [P039, (10S,14S)-2,2-Dimethyl-4,12-dioxo-3-oxa-5,11,13-triazahexadecane-10,14,16-tricarboxylic Acid] | 77 | 
6 | CN(C(=O)N[C@@H](CCC(=O)O)C(=O)O)[C@@H](CCCCNC(=O)c1ccc(OCCF)cc1)C(=O)O [P161] | 96 | 
7 | CCC1(CC)C(=O)N([C@@H](CCCCNC(=O)NCc2ccccc2)C(=O)O)C(=O)N([C@@H](CCC(=O)O)C(=O)O)C1=O [P108, (S)-2-(3-((S)-5-(3-benzylureido)-1-carboxypentyl)-5,5-diethyl-2,4,6-trioxotetrahydropyrimidin-1(2H)-yl)pentanedioic Acid] | 11 | 
8 | [N-]=[N+]=Nc1ccc(C(=O)NCCCC[C@H](NC(=O)N[C@@H](CCC(=O)O)C(=O)O)C(=O)O)cc1 [P058, (S)-2-(3-((S)-5-(4-Azidobenzamido)-1-carboxypentyl)ureido)pentanedioic Acid] | 100 | 
9 | O=C(O)CC[C@H](NC(=O)N[C@@H](CCCCNc1nc(F)ccc1[N+](=O)[O-])C(=O)O)C(=O)O [P265, (S)-2-(3-((S)-1-Carboxy-5-((6-fluoro-3-nitropyridin-2-yl)amino)pentyl)ureido)pentanedioic Acid] |  | PSMA Blkg % (1.0 μM): 97%
10 | O=C(O)CC[C@H](NC(=O)N(O)[C@@H](CCCCNC(=O)c1ccc(NC(=O)c2ccc(F)nc2)cc1)C(=O)O)C(=O)O [P164, (S)-2-(3-((S)-1-Carboxy-5-(4-(6-fluoronicotinamido)benzamido)pentyl)-3-hydroxyureido)pentanedioic Acid] | 80 | pKi: < 6.39
11 | O=C(O)CC[C@H](NC(=O)OCC(=O)O)C(=O)O [P027, (S)-2-(((Carboxymethoxy)carbonyl)amino)pentanedioic Acid] | 31 | 
12 | CC(=O)N(CCF)CC(CP(=O)(O)O)C(=O)O.O=C(O)C(F)(F)F (centres unmarked) [P196, 3-(N-(2-Fluoroethyl)acetamido)-2-(phosphonomethyl)propanoic Acid] |  | PSMA Blkg % (10 μM): 27%
13 | O=C(O)CC[C@H](NC(=O)C[C@@H](NC(=O)NCCc1ccccc1)C(=O)O)C(=O)O [P214, (S)-2-((R)-3-Carboxy-3-(3-phenethylureido)propanamido)pentanedioic Acid] |  | PSMA Blkg % (10 μM): 34%
14 | O=C(O)CC[C@@H](C(=O)O)N(O)C(=O)N[C@@H](CCCCNC(=O)c1ccc(-n2cc(CCCF)nn2)cc1)C(=O)O [P152, (S)-2-(3-((S)-1-Carboxy-5-(4-(4-(3-fluoropropyl)-1H-1,2,3-triazol-1-yl)benzamido)pentyl)-1-hydroxyureido)pentanedioic Acid] | 93 | pKi: 6.89
15 | O=C(O)CC[C@H](NC(=O)N[C@@H](Cc1ccc(NC(=O)Nc2ccc(C[C@H](NC(=O)N[C@@H](CCC(=O)O)C(=O)O)C(=O)O)cc2)cc1)C(=O)O)C(=O)O [P223, (2S,2′S)-2,2′-(((((1S,1′S)-((Carbonylbis(azanediyl))bis(4,1-phenylene))bis(1-carboxyethane-2,1-diyl))bis(azanediyl))bis(carbonyl))bis(azanediyl))dipentanedioic Acid] |  | pKi: 8.96; PSMA Blkg % (1.0 μM): 98%
16 | O=C(O)CC[C@H](NC(=S)N(O)C(CCCCNC(=O)OCc1ccccc1)C(=O)O)C(=O)O (stereo partly drawn) [P071, (13S)-10-Hydroxy-3-oxo-1-phenyl-11-thioxo-2-oxa-4,10,12-triazapentadecane-9,13,15-tricarboxylic Acid] | 96 | pKi: 7.51
17 | CN(C(=O)N[C@@H](CCC(=O)O)C(=O)O)[C@@H](Cc1ccc(NC(=O)CCCn2cc(CCCF)nn2)cc1)C(=O)O [P191, (S)-2-(3-((S)-1-Carboxy-2-(4-(4-(4-(3-fluoropropyl)-1H-1,2,3-triazol-1-yl)-butanamido)phenyl)-ethyl)-3-methylureido)pentanedioic Acid] |  | PSMA Blkg % (10 μM): 78%
18 | O=C(O)CC[C@H](NC(=O)N(CC(=O)O)NC(=O)OCc1ccccc1)C(=O)O [P021, (S)-2-(2-(Benzyloxycarbonyl)-1-(carboxymethyl)hydrazinecarboxamido) pentanedioic Acid] | 0 | 
19 | COc1ccc(CCCC(=O)N(O)CC(=O)N[C@@H](CCC(=O)O)C(=O)O)cc1 [P132, (S)-2-(2-(N-Hydroxy-4-(4-methoxyphenyl)butanamido)acetamido)pentanedioic Acid] | 17 | 
20 | CC(C)(C)OC(=O)NCCCCN(CC(=O)O)CC(=O)N[C@@H](CCC(=O)O)C(=O)O [P049, (S)-2-(2-((4-(tert-Butoxycarbonylamino)butyl)(carboxymethyl)amino)acetamido) pentanedioic Acid] | 0 | 
21 | COc1ccc(-c2cn(CC(=O)NCCCC[C@@H](C(=O)O)N(C)C(=O)N[C@@H](CCC(=O)O)C(=O)O)nn2)cc1 [P036, (S)-2-(3-((S)-1-Carboxy-5-(2-(4-(4-methoxyphenyl)-1H-1,2,3-triazol-1-yl)acetamido)-pentyl)3-methylureido)pentanedioic Acid] | 68 | 

Source: patent publication US10894807B2 (Siemens Medical Solutions USA, Inc., priority 2011, dated 2021)
